Key:
[1] = Compressibility test on tablets; assay type: physicochemical
Protocol: A set of tablets was prepared using different compression forces. A compressibility test was carried out on these.

[2] = Stability test (exposure to humidity, XRPD); assay type: physicochemical; conditions: 25° C.
Protocol: Stability tests were carried out on Aliskiren hemifumarate, amorphous solid of this invention and Aliskiren hemifumarate, amorphous solid obtained as described in WO2008/061622, maintaining the samples at 25° C., 75% RH. […] The same samples were exposed to 25° C., 60% RH.

| Rupture Strength ([1]; tablet #1, compression strength 22.27 kN) | Rupture Strength ([1]; tablet #2, compression strength 23.82 kN) | Rupture Strength ([1]; tablet #3, compression strength 24.15 kN) | Rupture Strength ([1]; tablet #4, compression strength 6.80 kN) | Rupture Strength ([1]; tablet #5, compression strength 7.95 kN) | Rupture Strength ([1]; tablet #6, compression strength 10.10 kN) | Rupture Strength ([1]; tablet #7, compression strength 11.55 kN) | Rupture Strength ([1]; tablet #8, compression strength 7.88 kN) | Rupture Strength ([1]; tablet #9, compression strength 10.15 kN) | Rupture Strength ([1]; tablet #10, compression strength 13.18 kN) | Rupture Strength ([1]; tablet #11, compression strength 15.60 kN) | Rupture Strength ([1]; tablet #12, compression strength 14.12 kN) | Typical nature of the diffractogram (XRPD pattern) after exposure ([2]; 60% RH, 5 days, curve A basal vs curve B, FIG. 15) | Rupture strength compared with tablets of amorphous solid obtained as described in WO2008/061622 ([1]; comparison of Tables 7 and 8) | Rupture Strength ([1]; tablet #1, compression strength 11.83 kN) | Rupture Strength ([1]; tablet #2, compression strength 5.83 kN) | Rupture Strength ([1]; tablet #3, compression strength 16.45 kN) | Rupture Strength ([1]; tablet #4, compression strength 10.85 kN) | Rupture Strength ([1]; tablet #5, compression strength 19.43 kN) | Structure (SMILES) | Change of physical form of the sample ([2]; 75% RH, after 2 hours) |
| --- | --- | --- | --- | --- | --- | --- | --- | --- | --- | --- | --- | --- | --- | --- | --- | --- | --- | --- | --- | --- |
| 1.5 N | 2 N | 1.5 N | 2 N | 2 N | 1.5 N | 2.2 N | 2.5 N | 2 N | 2 N | 2 N | 2 N | – | – | – | – | – | – | – | COCCCOc1cc(C[C@@H](C[C@H](N)[C@@H](O)C[C@H](C(=O)NCC(C)(C)C(N)=O)C(C)C)C(C)C)ccc1OC | – |
| – | – | – | – | – | – | – | – | – | – | – | – | lost | higher | 4.5 N | 4 N | 2 N | 4 N | 3.5 N | COCCCOc1cc(C[C@@H](C[C@H](N)[C@@H](O)C[C@H](C(=O)NCC(C)(C)C(N)=O)C(C)C)C(C)C)ccc1OC [(2S,4S,5S,7S)-5-amino-N-(3-amino-2,2-dimethyl-3-oxypropyl)-4-hydroxy-7-[[4-methoxy-3-(3-methoxypropoxy)pheny]methyl]-8-methyl-2-propan-2 ilnonanamide] | changed from solid to viscous liquid form |
